Laboratory results reported in patent US11331314B2, “Amine substituted triazole derivatives and uses thereof” (Bayer Pharma Aktiengesellschaft, priority 2017, dated 2022).

Tests used:
[1] = biological target: T1, human V2 receptor (Homo sapiens, UniProt P30518); assay: Cellular in vitro assay for determining vasopressin receptor activity, V2 receptor cell line (CRE-luciferase); assay type: cell-based; settings: CHO cell line transfected with the human V2 receptor; agonist [Arg8]-vasopressin at EC50 concentration; read-out: IC50 hV2
T1 construct: expressed in transfected cells; host or cells: CHO K1 (ATCC) expressing firefly luciferase under a CRE-responsive promoter
T1 sequence (P30518 whole entry): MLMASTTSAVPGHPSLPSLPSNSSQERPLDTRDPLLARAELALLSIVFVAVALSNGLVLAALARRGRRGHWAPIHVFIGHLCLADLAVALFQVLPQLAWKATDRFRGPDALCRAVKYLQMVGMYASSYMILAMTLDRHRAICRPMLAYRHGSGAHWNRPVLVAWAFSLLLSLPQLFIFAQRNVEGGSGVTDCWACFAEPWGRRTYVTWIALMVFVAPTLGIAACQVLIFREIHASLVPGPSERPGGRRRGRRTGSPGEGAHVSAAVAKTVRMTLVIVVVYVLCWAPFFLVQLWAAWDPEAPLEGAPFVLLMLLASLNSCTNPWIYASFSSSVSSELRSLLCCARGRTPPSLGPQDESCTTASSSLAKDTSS
Description: (§1) B-1. Cellular In Vitro Assay for Determining Vasopressin Receptor Activity
(§2) The identification of agonists and antagonists of the V1a and V2 vasopressin receptors from humans, rats and dogs as well as the quantification of the activity of the compounds of the invention is carried out using recombinant cell lines. These cell lines originally derive from a hamster's ovary epithelial cell (Chinese Hamster Ovary, CHO K1, ATCC: American Type Culture Collection, Manassas, Va. 20108, USA). The test cell lines constitutively express the human, rat or dog V1a or V2 receptors. In case of the Gαq-coupled V1a receptors, cells are also stably transfected with a modified form of the calcium-sensitive photoproteins aequorin (human and rat V1a) or obelin (dog V1a), which, after reconstitution with the cofactor coelenterazine, emit light when there are increases in free calcium concentrations [Rizzuto R, Simpson A W, Brini M, Pozzan T, Nature 358, 325-327 (1992); Illarionov B A, Bondar V S, Illarionova V A, Vysotski E S, Gene 153 (2), 273-274 (1995)]. The resulting vasopressin receptor cells react to stimulation of the recombinantly expressed V1a receptors by intracellular release of calcium ions, which can be quantified by the resulting photoprotein luminescence. The Gs-coupled V2 receptors are stably transfected into cell lines expressing the gene for firefly luciferase under control of a CRE-responsible promoter. Activation of V2 receptors induces the activation of the CRE-responsive promoter via cAMP increase, thereby inducing the expression of firefly luciferase. The light emitted by photoproteins of V1a cell lines as well as the light emitted by firefly luciferase of V2 cell lines corresponds to the activation or inhibition of the respective vasopressin receptor. The bioluminescence of the cell lines is detected using a suitable luminometer [Milligan G, Marshall F, Rees S, Trends in Pharmacological Sciences 17, 235-237 (1996)].
Vasopressin V2 Receptor Cell Lines:
On the day before the assay, the cells are plated out in culture medium (DMEM/F12, 2% FCS, 2 mM glutamine, 10 mM HEPES) in 384-well microtiter plates and kept in a cell incubator (96% humidity, 5% v/v CO2, 37° C.). On the day of the assay, test compounds in various concentrations and the agonist [Arg^8]-vasopressin at EC50 concentration are added together to the wells, and plates are incubated for 3 hours in a cell incubator. Upon addition of the cell lysis reagent Triton™ and the substrate luciferin, luminescence of firefly luciferase is measured in a luminometer.
(§3) Table 1A below lists individual IC50 values for the compounds of the invention (including racemic mixtures as well as separated enantiomers) that were obtained from cell lines transfected with the human V1a or V2 receptor: […]

[2] = biological target: human V1a receptor (Homo sapiens, UniProt P37288); assay: Cellular in vitro assay for determining vasopressin receptor activity, V1a receptor cell line (photoprotein luminescence); assay type: cell-based; settings: for IC50: CHO cell line transfected with the human V1a receptor, agonist [Arg8]-vasopressin at EC50 concentration, read-out: IC50 hV1a; for ratio IC50 hV2/hV1a: selectivity ratio of the cellular IC50 values
Chain of human V1a receptor (P37288 whole entry): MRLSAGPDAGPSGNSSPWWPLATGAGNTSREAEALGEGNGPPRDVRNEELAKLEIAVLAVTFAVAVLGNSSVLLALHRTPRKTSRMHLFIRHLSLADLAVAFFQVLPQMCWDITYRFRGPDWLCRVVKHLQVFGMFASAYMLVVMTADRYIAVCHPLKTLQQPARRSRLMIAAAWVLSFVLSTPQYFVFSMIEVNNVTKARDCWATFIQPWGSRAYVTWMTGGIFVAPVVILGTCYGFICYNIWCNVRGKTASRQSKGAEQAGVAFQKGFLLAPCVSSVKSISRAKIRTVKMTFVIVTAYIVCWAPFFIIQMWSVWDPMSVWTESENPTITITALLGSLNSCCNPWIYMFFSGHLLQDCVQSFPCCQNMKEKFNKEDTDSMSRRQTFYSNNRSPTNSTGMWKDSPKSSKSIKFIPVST
Description: as §1, §2
Vasopressin V1a Receptor Cell Lines:
On the day before the assay, the cells are plated out in culture medium (DMEM/F12, 2% FCS, 2 mM glutamine, 10 mM HEPES, 5 μg/ml coelenterazine) in 384-well microtiter plates and kept in a cell incubator (96% humidity, 5% v/v CO2, 37° C.). On the day of the assay, test compounds in various concentrations are placed for 10 minutes in the wells of the microtiter plate before the agonist [Arg^8]-vasopressin at EC50 concentration is added. The resulting light signal is measured immediately in a luminometer.
as §3

IC50 [1]	IC50 [2]	ratio IC50 hV2/hV1a [2]	Compound
2.45 nM	1.2 nM	2.0	O=C1NCC(CNc2nc(Cn3nc(-c4ccc(Cl)cc4)n(C[C@H](O)C(F)(F)F)c3=O)nn2-c2ccccc2Cl)O1 (mixture of isomers) [Example 12, 5-(4-Chlorophenyl)-2-{[1-(2-chlorophenyl)-5-({[2-oxo-1,3-oxazolidin-5-yl]methyl}amino)-1H-1,2,4-triazol-3-yl]methyl}-4-[(2S)-3,3,3-trifluoro-2-hydroxypropyl]-2,4-dihydro-3H-1,2,4-triazol-3-one]
2.25 nM	0.35 nM	6.5	O=c1n(Cc2nc(N3CCC(O)(C(F)(F)F)C3)n(-c3ccccc3Cl)n2)nc(-c2ccc(Cl)cc2)n1C[C@H](O)C(F)(F)F (mixture of isomers) [Example 13, 5-(4-Chlorophenyl)-2-({1-(2-chlorophenyl)-5-[3-hydroxy-3-(trifluoromethyl)pyrrolidin-1-yl]-1H-1,2,4-triazol-3-yl}methyl)-4-[(2S)-3,3,3-trifluoro-2-hydroxypropyl]-2,4-dihydro-3H-1,2,4-triazol-3-one]
0.82 nM	0.33 nM	2.5	O=C1NCCC1Nc1nc(Cn2nc(-c3ccc(Cl)cc3)n(C[C@H](O)C(F)(F)F)c2=O)nn1-c1ccccc1Cl (mixture of isomers) [Example 16, 5-(4-Chlorophenyl)-2-{[1-(2-chlorophenyl)-5-{[2-oxopyrrolidin-3-yl]amino}-1H-1,2,4-triazol-3-yl]methyl}-4-[(2S)-3,3,3-trifluoro-2-hydroxypropyl]-2,4-dihydro-3H-1,2,4-triazol-3-one]
38 nM	2.55 nM	14.9	CC(C)(C)OC(=O)N1CCCC(O)(CNc2nc(Cn3nc(-c4ccc(Cl)cc4)n(C[C@H](O)C(F)(F)F)c3=O)nn2-c2ccccc2Cl)CC1 (mixture of isomers) [Example 19, tert-Butyl 4-({[1-(2-chlorophenyl)-3-({3-(4-chlorophenyl)-5-oxo-4-[(2S)-3,3,3-trifluoro-2-hydroxypropyl]-4,5-dihydro-1H-1,2,4-triazol-1-yl}methyl)-1H-1,2,4-triazol-5-yl]amino}methyl)-4-hydroxyazepane-1-carboxylate]
1.28 nM	0.35 nM	3.7	CC(N)(CNc1nc(Cn2nc(-c3ccc(Cl)cc3)n(C[C@H](O)C(F)(F)F)c2=O)nn1-c1ccccc1Cl)C(F)(F)F (mixture of isomers) [Example 27, 2-{[5-{[2-Amino-3,3,3-trifluoro-2-methylpropyl]amino}-1-(2-chlorophenyl)-1H-1,2,4-triazol-3-yl]methyl}-5-(4-chlorophenyl)-4-[(2S)-3,3,3-trifluoro-2-hydroxypropyl]-2,4-dihydro-3H-1,2,4-triazol-3-one]
9.25 nM	0.37 nM	25.2	NC(=O)C1CN(c2nc(Cn3nc(-c4ccc(Cl)cc4)n(C[C@H](O)C(F)(F)F)c3=O)nn2-c2ccccc2Cl)CCN1 (mixture of isomers) [Example 33, 4-[1-(2-Chlorophenyl)-3-({3-(4-chlorophenyl)-5-oxo-4-[(2S)-3,3,3-trifluoro-2-hydroxypropyl]-4,5-dihydro-1H-1,2,4-triazol-1-yl}methyl)-1H-1,2,4-triazol-5-yl]piperazine-2-carboxamide]
1.9 nM	0.48 nM	4.0	COC1CCN(c2nc(Cn3nc(-c4ccc(Cl)cc4)n(C[C@H](O)C(F)(F)F)c3=O)nn2-c2ccccc2Cl)C1 (mixture of isomers) [Example 42, 5-(4-Chlorophenyl)-2-({1-(2-chlorophenyl)-5-[3-methoxypyrrolidin-1-yl]-1H-1,2,4-triazol-3-yl}methyl)-4-[(2S)-3,3,3-trifluoro-2-hydroxypropyl]-2,4-dihydro-3H-1,2,4-triazol-3-one]

Continued, compound first:

Compound	IC50 [1]	IC50 [2]	ratio IC50 hV2/hV1a [2]
NC(CNc1nc(Cn2nc(-c3ccc(Cl)cc3)n(C[C@H](O)C(F)(F)F)c2=O)nn1-c1ccccc1Cl)C(F)(F)F (mixture of isomers) [Example 6, 2-{[5-{[2-Amino-3,3,3-trifluoropropyl]amino}-1-(2-chlorophenyl)-1H-1,2,4-triazol-3-yl]methyl}-5-(4-chlorophenyl)-4-[(2S)-3,3,3-trifluoro-2-hydroxypropyl]-2,4-dihydro-3H-1,2,4-triazol-3-one]	3.45 nM	0.39 nM	8.9
NCC(O)CNc1nc(Cn2nc(-c3ccc(Cl)cc3)n(C[C@H](O)C(F)(F)F)c2=O)nn1-c1ccccc1Cl (mixture of isomers) [Example 11, 2-{[5-{[3-Amino-2-hydroxypropyl]amino}-1-(2-chlorophenyl)-1H-1,2,4-triazol-3-yl]methyl}-5-(4-chlorophenyl)-4-[(2S)-3,3,3-trifluoro-2-hydroxypropyl]-2,4-dihydro-3H-1,2,4-triazol-3-one]	4.65 nM	0.93 nM	5.0
O=c1n(Cc2nc(NCC3(O)CCCNCC3)n(-c3ccccc3Cl)n2)nc(-c2ccc(Cl)cc2)n1C[C@H](O)C(F)(F)F (mixture of isomers) [Example 20]	12 nM	0.42 nM	28.6
CC1(O)CCN(c2nc(Cn3nc(-c4ccc(Cl)cc4)n(C[C@H](O)C(F)(F)F)c3=O)nn2-c2ccccc2Cl)C1 (mixture of isomers) [Example 29, 5-(4-Chlorophenyl)-2-({1-(2-chlorophenyl)-5-[3-hydroxy-3-methylpyrrolidin-1-yl]-1H-1,2,4-triazol-3-yl}methyl)-4-[(2S)-3,3,3-trifluoro-2-hydroxypropyl]-2,4-dihydro-3H-1,2,4-triazol-3-one]	4.9 nM	1.05 nM	4.7
O=CN1CCC(Nc2nc(Cn3nc(-c4ccc(Cl)cc4)n(C[C@H](O)C(F)(F)F)c3=O)nn2-c2ccccc2Cl)C1 (mixture of isomers) [Example 41, 3-{[1-(2-Chlorophenyl)-3-({3-(4-chlorophenyl)-5-oxo-4-[(2S)-3,3,3-trifluoro-2-hydroxypropyl]-4,5-dihydro-1H-1,2,4-triazol-1-yl}methyl)-1H-1,2,4-triazol-5-yl]amino}pyrrolidine-1-carbaldehyde]	7.4 nM	0.93 nM	8.0
O=c1n(Cc2nc(N3CCC(O)C3)n(-c3ccccc3Cl)n2)nc(-c2ccc(Cl)cc2)n1C[C@H](O)C(F)(F)F (mixture of isomers) [Example 43, 5-(4-Chlorophenyl)-2-({1-(2-chlorophenyl)-5-[3-hydroxypyrrolidin-1-yl]-1H-1,2,4-triazol-3-yl}methyl)-4-[(2S)-3,3,3-trifluoro-2-hydroxypropyl]-2,4-dihydro-3H-1,2,4-triazol-3-one]	4.4 nM	0.42 nM	10.5
O=c1n(Cc2nc(NCC(O)C(F)(F)F)n(-c3ccccc3Cl)n2)nc(-c2ccc(Cl)cc2)n1C[C@H](O)C(F)(F)F (mixture of isomers) [Example 53, 5-(4-Chlorophenyl)-2-{[1-(2-chlorophenyl)-5-{[3,3,3-trifluoro-2-hydroxypropyl]amino}-1H-1,2,4-triazol-3-yl]methyl}-4-[(2S)-3,3,3-trifluoro-2-hydroxypropyl]-2,4-dihydro-3H-1,2,4-triazol-3-one]	1.85 nM	0.52 nM	3.6
O=C1CCC(Nc2nc(Cn3nc(-c4ccc(Cl)cc4)n(C[C@H](O)C(F)(F)F)c3=O)nn2-c2ccccc2Cl)CN1 (mixture of isomers) [Example 60, 5-{[1-(2-Chlorophenyl)-3-({3-(4-chlorophenyl)-5-oxo-4-[(2S)-3,3,3-trifluoro-2-hydroxypropyl]-4,5-dihydro-1H-1,2,4-triazol-1-yl}methyl)-1H-1,2,4-triazol-5-yl]amino}piperidin-2-one]	5.4 nM	0.44 nM	12.3
